In one series the test system is SALL4. Briefly: SALL4 degradation by immunoblotting in Tera-1 cells. It counts as cell-based, human. The note with it: 0.000128-10 μM, 4 hours, immunoblot, FIG. 4. The source says: It has been reported that a cereblon (CRBN)-binding therapeutic such as a thalidomide-based compound can cause severe congenital abnormalities such as forelimb shortening or brachydactyly, which are closely associated with the decomposition of SALL4.
To this end, the Tera-1 cell line (HTB-105), which is a human embryonic carcinoma cell line, was purchased from the American Type Culture Collection (ATCC, Manassas, VA, USA) and used, and then cultured using a DMEM medium (Corning, MD, USA) supplemented with 10% fetal bovine serum (Corning, MD, USA), 100 U/mL of penicillin (Corning, MD, USA), and 100 100 μg/mL streptomycin (Corning, MD, USA) at 37° C. in a 5% CO2 incubator.
The cells were disrupted by adding a RIPA buffer containing a protease inhibitor cocktail (Thermo Fisher Scientific), and centrifuged at 14,000 rpm for 15 minutes at 4° C. to obtain a cell extract. Equal amounts of the cell extract were loaded, and proteins were separated by SDS-PAGE and then transferred to a PVDF membrane. The protein-transferred membrane was blocked using skim milk, incubated with a primary antibody for 3 hours at room temperature, and then incubated with an HRP-conjugated secondary antibody for 1 hour at room temperature. The resulting product was washed with TBS-T three times between steps. […]
(Immunoblotting shows a protein as a band on a membrane.)

Series [1] concerns iNOS and COX-2. Description: iNOS and COX-2 immunoblotting in LPS-stimulated RAW264.7 cells. It counts as cell-based, mouse. The note with it: RAW264.7, 3.33, 10, or 30 μM, LPS 60 ng/ml 24 hours, FIG. 6A. As to the method:
To confirm an oxidative stress suppression effect, the expression levels of iNOS and COX-2 were confirmed.
To this end, the RAW264.7 cell line, which is a mouse macrophage cell line, was purchased from the Korea Cell Line Bank (KCLB, Korea) and used, and cultured in a DMEM medium (Corning, MD, USA) supplemented with 10% fetal bovine serum (Corning, MD, USA), 100 U/mL of penicillin (Corning, MD, USA), and 100 100 μg/mL of streptomycin (Corning, MD, USA) at 37° C. in a 5% CO2 incubator.
After 1 hour, the cells were stimulated by treatment with 60 ng/ml of LPS, and further cultured for 24 hours. The cells were disrupted by adding a RIPA buffer containing a protease inhibitor cocktail (Thermo Fisher Scientific) and centrifuged at 14,000 rpm for 15 minutes at 4° C. to obtain a cell extract. Equal amounts of the cell extract were loaded, and proteins were separated through SDS-PAGE and then transferred to a PVDF film. The protein-transferred membrane was blocked using skim milk, incubated with a primary antibody for 3 hours at room temperature, and then incubated with an HRP-conjugated secondary antibody for 1 hour at room temperature.
The resulting product was washed with TBS-T three times between steps. […]

The test system of another series is BV-2 cells. Description: Nitrite content in culture medium of LPS-stimulated BV-2 cells (Griess). It counts as cell-based, mouse. Conditions: BV-2, 30, 10, or 3.33 μM, LPS 1 μg/mL 24 hours, FIG. 6B. The protocol: To further confirm the oxidative stress suppression effect, the content of nitrite released due to an inflammatory response and the expression levels of iNOS, which is an enzyme that produces nitric oxide, and COX-2, which is cyclooxygenase-2, were determined in mouse microglial cells (BV-2, ATCC, Manassas, VA, USA).
To determine the content of nitrite and the protein expression levels of iNOS and COX-2, BV-2 was seeded in a 12-well plate (Corning, MD, USA) at 1.5×10^5 cells/well, and cultured using a DMEM medium (Corning, MD, USA) containing 10% fetal bovine serum (Corning, MD, USA) and 100 U/mL of penicillin/streptomycin (Corning, MD, USA) at 37° C. in a 5% CO2 incubator for one day for stabilization. […] 1 μg/mL of LPS (Sigma, USA) was added to all experimental groups excluding the non-inflammation-induced group and allowed to react at 37° C. in a 5% CO2 incubator for 24 hours.
The cell culture solution was collected to measure the content of nitrite, and centrifuged at 3,000 rpm for 5 minutes to obtain a supernatant. The concentration of nitrite in the cell culture was measured using a microplate reader (NEO2MALPHAB Synergy Neo-2, BioTek, CA, US) according to the manual of the Griess Reagent System (#G2930, Promega, WI, USA).

For series [2], the system named is iNOS and COX-2. Description: iNOS and COX-2 mRNA (RT-PCR) in LPS-stimulated BV-2 cells. It counts as cell-based, mouse. Conditions: BV-2, 30, 10, or 3.33 μM, LPS 1 μg/mL 6 hours, FIG. 6D. As to the method:
Finally, to determine the mRNA expression levels of iNOS and COX-2, BV-2 was seeded in a 6-well plate (Corning, MD, USA) at 5×10^5 cells/well, and cultured using a DMEM medium (Corning, MD, USA) containing 10% fetal bovine serum (Corning, MD, USA) and 100 U/mL of penicillin/streptomycin (Corning, MD, USA) at 37° C. in a 5% CO2 incubator for one day for stabilization. […] 1 μg/mL of LPS (Sigma, USA) was added to all experimental groups excluding the non-inflammation-induced group and allowed to react at 37° C. in a 5% CO2 incubator for 6 hours.
The drug-treated BV-2 underwent RNA prep according to the kit manual using an RNA prep kit (Monarch Total RNA Miniprep kit, NEB, UK), and the concentration was measured using a nanophotometer (NP80, Implen, Germany). […]
The expression level of each oxidative stress-associated gene in the synthesized cDNA was analyzed and compared using Real-Time PCR (StepOne™Bioscience, USA) equipment. […] The Cr value for the gene of each sample obtained through real-time PCR was normalized by the value of the internal control gene (GAPDH) of each sample, the expression level was estimated inversely by 2ΔΔCT calculation, and the resulting value of each group was quantified and expressed as a percentage relative to the LPS-only treatment group.

With `Nc1cccc2c1C(=S)N(C1CCC(=O)NC1=O)C2=O` (stereo not shown) [3-MP, 3-thiopomalidomide], the “decomposition of SALL4” value in the series on SALL4 was “less decomposition of SALL4 than pomalidomide”. Further, the “expression of iNOS and COX-2 (protein)” value in the series on iNOS and COX-2 [1] is “inhibits the expression of iNOS and COX-2”. Further, the “amount of residual nitrite released by LPS” value in the series on BV-2 cells was “effectively reduced the amount of the residual nitrite released by LPS, compared to pomalidomide”. The “mRNA expression of oxidative stress-associated genes (iNOS and COX-2)” value in the series with iNOS and COX-2 [2] was “can effectively inhibit the mRNA expression of an oxidative stress-associated gene”.
